The values that follow are results of earlier work, collected in patent publication US4130647A, “Methods for treating congestive heart failure and ischemic heart disease” (priority 1977, dated 1978).

Structures are written as SMILES.

The subject of the series is patients with congestive heart failure. Particulars: cited from earlier work.

In the case of `O=[N+]([O-])OCC(CO[N+](=O)[O-])O[N+](=O)[O-]` [nitroglycerin], the cardiac output result (when left ventricular filling pressures fall below the upper limits of normal) is listed as “A similar phenomenon is observed”.

As to `NNc1nncc2ccccc12` [hydralazine], for the setting “heart failure”, the “left ventricular filling pressures” value is given as “does not usually lower left ventricular filling pressures”. The side effects entry (in vivo) is “serologic side effects and leading to sodium retention”. Further, under “left ventricular failure”, the Pulmonary Wedge Pressure entry was “only slightly reduces pulmonary wedge pressure”; the “right atrial pressure and forearm veins” value is “does not reduce right atrial pressure or dilate forearm veins”.
